Laboratory results reported in the NIST ThermoML archive (doi:10.1021/je049893r).
Numbers after ± are expanded uncertainties.

Settings: Liquid, Vibrating tube method

CCCCOCCOCCO [3,6-dioxa-1-decanol]
mass density [kg/m3]
Settings | 100 kPa | 1000 kPa | 2500 kPa | 5000 kPa | 7500 kPa | 10000 kPa | 15000 kPa | 20000 kPa | 25000 kPa
283.15 K | 960.5 ± 0.5 | 961 ± 0.5 | 961.9 ± 0.5 | 963.4 ± 0.5 | 964.9 ± 0.5 | 966.3 ± 0.5 | 969.1 ± 0.5 | 971.8 ± 0.5 | 974.4 ± 0.5
293.15 K | 952.2 ± 0.5 | 952.7 ± 0.5 | 953.7 ± 0.5 | 955.2 ± 0.5 | 956.7 ± 0.5 | 958.2 ± 0.5 | 961.1 ± 0.5 | 963.9 ± 0.5 | 966.7 ± 0.5
303.15 K | 943.8 ± 0.5 | 944.3 ± 0.5 | 945.3 ± 0.5 | 946.9 ± 0.5 | 948.5 ± 0.5 | 950.1 ± 0.5 | 953.1 ± 0.5 | 956.1 ± 0.5 | 959 ± 0.5
313.15 K | 935.3 ± 0.5 | 935.9 ± 0.5 | 936.9 ± 0.5 | 938.6 ± 0.5 | 940.3 ± 0.5 | 941.9 ± 0.5 | 945.1 ± 0.5 | 948.2 ± 0.5 | 951.2 ± 0.5
323.15 K | 926.6 ± 0.5 | 927.2 ± 0.5 | 928.3 ± 0.5 | 930.1 ± 0.5 | 931.8 ± 0.5 | 933.5 ± 0.5 | 936.9 ± 0.5 | 940.1 ± 0.5 | 943.2 ± 0.5
333.15 K | 917.8 ± 0.5 | 918.5 ± 0.5 | 919.7 ± 0.5 | 921.6 ± 0.5 | 923.4 ± 0.5 | 925.2 ± 0.5 | 928.7 ± 0.5 | 932 ± 0.5 | 935.2 ± 0.5
343.15 K | 909.7 ± 0.5 | 910.4 ± 0.5 | 911.6 ± 0.5 | 913.6 ± 0.5 | 915.5 ± 0.5 | 917.4 ± 0.5 | 921.1 ± 0.5 | 924.6 ± 0.5 | 928 ± 0.5
353.15 K | 900.9 ± 0.5 | 901.7 ± 0.5 | 903 ± 0.5 | 905 ± 0.5 | 907.1 ± 0.5 | 909.1 ± 0.5 | 912.9 ± 0.5 | 916.6 ± 0.5 | 920.1 ± 0.5

CCCOCC(C)O (centres undefined) [1-propoxy-2-propanol]
mass density [kg/m3]
Settings | 100 kPa | 1000 kPa | 2500 kPa | 5000 kPa | 7500 kPa | 10000 kPa | 15000 kPa | 20000 kPa | 25000 kPa
283.15 K | 895.1 ± 0.7 | 895.7 ± 0.7 | 896.7 ± 0.7 | 898.5 ± 0.7 | 900.1 ± 0.7 | 901.8 ± 0.7 | 905 ± 0.7 | 908.1 ± 0.7 | 911.1 ± 0.7
293.15 K | 886 ± 0.7 | 886.6 ± 0.7 | 887.7 ± 0.7 | 889.6 ± 0.7 | 891.3 ± 0.7 | 893.1 ± 0.7 | 896.5 ± 0.7 | 899.8 ± 0.7 | 902.9 ± 0.7
303.15 K | 876.4 ± 0.7 | 877.2 ± 0.7 | 878.4 ± 0.7 | 880.3 ± 0.7 | 882.2 ± 0.7 | 884 ± 0.7 | 887.6 ± 0.7 | 891.1 ± 0.7 | 894.4 ± 0.7
313.15 K | 866.9 ± 0.7 | 867.6 ± 0.7 | 868.9 ± 0.7 | 871 ± 0.7 | 873 ± 0.7 | 875 ± 0.7 | 878.8 ± 0.7 | 882.4 ± 0.7 | 885.9 ± 0.7
323.15 K | 857.2 ± 0.7 | 858 ± 0.7 | 859.3 ± 0.7 | 861.4 ± 0.7 | 863.5 ± 0.7 | 865.6 ± 0.7 | 869.6 ± 0.7 | 873.5 ± 0.7 | 877.2 ± 0.7
333.15 K | 847.1 ± 0.7 | 847.9 ± 0.7 | 849.3 ± 0.7 | 851.7 ± 0.7 | 853.9 ± 0.7 | 856.1 ± 0.7 | 860.3 ± 0.7 | 864.3 ± 0.7 | 868.1 ± 0.7
343.15 K | 837.5 ± 0.7 | 838.4 ± 0.7 | 840 ± 0.7 | 842.4 ± 0.7 | 844.9 ± 0.7 | 847.2 ± 0.7 | 851.8 ± 0.7 | 856 ± 0.7 | 860.1 ± 0.7
353.15 K | 827.3 ± 0.6 | 828.3 ± 0.6 | 829.9 ± 0.7 | 832.6 ± 0.7 | 835.2 ± 0.7 | 837.7 ± 0.7 | 842.5 ± 0.7 | 847 ± 0.7 | 851.3 ± 0.7
